Measured values taken from US20230047208A1, “RNA Splicing Modulation” (The General Hospital Corporation, priority 2020, published 2023).

System: wildtype (WT) human fibroblast cell lines
Assay: Transcriptome-wide splicing by RNA sequencing (RNASeq), exon triplet PSI change;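 on Effect: six WT fibroblast lines treated seven days versus DMSO vehicle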;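 on T-PSI: T-PSI is average treated PSI after seven days of treatment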
Type: cell-based
Parameters: key to Effect: Exclusion; Inclusion; Unchanged
Description: FIG. 2A provides a representation of an exon triplet. Exon U is upstream of Exon X, which is upstream of Exon D. R1, R2 and R3 represent RNA sequencing (RNASeq) reads spanning the regions between two adjacent exons. UI1, I1X, XI2 and I2D are four regions flanking the four splice sites of the exon-triplet. Each flanking region consists of 25 exonic base pairs and 75 intronic base pairs.
FIG. 2B provides a volcano plot showing the ψ (PSI: Percent Spliced-In) changes in splicing after treatment with Compound (I). Each dot represents one of the 161,097 expressed exon triplets in human fibroblasts. The x axis represents the ψ changes after treatment and the y axis represents the False Discovery Rate (FDR) (log 10 transformed). […] The horizontal dashed line indicates an FDR of 0.1. The dots on the right side of the right vertical dashed line and above the horizontal dashed line represent the exon-triplets with an increase for Exon X inclusion (Δψ≥0.1 and FDR<0.1) while the dots on left side of the left vertical dashed line and above the horizontal dashed line represent an increase for Exon X exclusion (Δψ≤−0.1 and FDR<0.1). Black dots in-between the two vertical dashed lines represent exon-triplets unchanged from the treatment.
In some aspects, analysis is performed on data derived from the assay to measure the magnitude of splicing to determine the amount of exons spliced into an mRNA transcript that is produced in the presence of Compound (I) relative to the amount in the absence of Compound (I) or presence of a negative control. In a preferred aspect, the method utilized is calculation of change in Percent Spliced In (ΔPSI). […] The ΔPSI value is derived from the formula: […]
The values for “a” and “b” represent the number of reads supporting the probability for potential inclusion or exclusion of an exon in an RNA transcript. The “a” value is derived from the number of reads within an exon triplet covering, in 5′ to 3′ order: the last few bases (>1 nucleotide) of an upstream exon operably linked to the first few bases (>1 nucleotide) of a middle exon. The “b” value is derived from the number of reads within an exon triplet covering, in 5′ to 3′ order: the last few bases (>1 nucleotide) of the middle exon operably linked to the first few bases (>1 nucleotide) of a downstream exon. The number of reads will indicate whether the splice junction of a middle exon has been identified as potentially having a CNN Motif(s) by the CNN Model described herein, wherein the inclusion or exclusion of the middle exon may be modulated in the presence of Compound (I) to produce one or more mature RNA isoforms from the gene transcript. The value for “c” represents the number of reads supporting the exclusion of the middle exon.
The effect on splicing modulation and corresponding splice differences toward exon inclusion or exclusion was determined by counting the RNASeq reads covering two splice junctions of exon triplets (three consecutive exons: Exon U, Exon X, Exon D) and the corresponding intervening introns, then comparing the change in Percent Spliced In (ΔPSI or Δψ) of the middle exon (Exon X) after treatment (as shown in FIG. 2A)^52,53. 934 exon triplets were identified showing differential middle exon inclusion or exclusion in response to Compound (I) treatment. Of these, 254 were exon inclusion events (Δψ≥0.1 and FDR<0.1) and 680 were exon exclusion events (Δψ≤−0.1 and FDR<0.1) (as shown in FIG. 2B). […] The splicing results were evaluated by RT-PCR in independent replicate experiments, confirming all the calculated Δψ values. […]

[1] = PCNXL2 Exon 233160892-233161145
[2] = PCNXL2 Exon 233353645-233353677
[3] = PDE4DIP Exon 144859759-144859998

## Clc1nc(NCc2ccncc2)c2cc[nH]c2n1 [Compound (I), 2-chloro-N-(pyridin-4-ylmethyl)-7H-pyrrolo[2,3-d]pyrimidin-4-amine]
PARP6 Exon 72543186-72543295
  ΔPSI: 0.148
PARP6 Exon 72543186-72543298
  Effect: Inc
  T-PSI: 0.870
  ΔPSI: 0.164
PARP11 Exon 3938076-3938196
  Effect: Exc
  T-PSI: 0.250
  ΔPSI: −0.245
PATL1 Exon 59423429-59423518
  Effect: Exc
  T-PSI: 0.710
  ΔPSI: −0.168
PCBP2 Exon 53861589-53861627
  Effect: Exc
  T-PSI: 0.431
  ΔPSI: −0.218
PCID2 Exon 113845186-113845289
  Effect: Exc
  T-PSI: 0.757
  ΔPSI: −0.217
PCM1 Exon 17838100-17838264
  Effect: Exc
  T-PSI: 0.444
  ΔPSI: −0.135
[1]
  Effect: Unc
  T-PSI: 0.891
  ΔPSI: 0.009
[2]
  Effect: Exc
  T-PSI: 0.899
  ΔPSI: −0.101
PCNXL4 Exon 60574304-60575045
  Effect: Exc
  T-PSI: 0.498
  ΔPSI: −0.151
PCYT2 Exon 79863258-79863323
  Effect: Exc
  T-PSI: 0.804
  ΔPSI: −0.150
[3]
  Effect: Inc
  T-PSI: 0.821
  ΔPSI: 0.140
PDGFC Exon 157782581-157782641
  Effect: Unc
  T-PSI: 0.141
  ΔPSI: 0.006
PDLIM2 Exon 22449064-22449181
  Effect: Exc
  T-PSI: 0.542
  ΔPSI: −0.322
PDP1 Exon 94930139-94930173
  Effect: Unc
  T-PSI: 0.184
  ΔPSI: −0.002
PDPR Exon 70148773-70148833
  Effect: Unc
  T-PSI: 0.268
  ΔPSI: −0.005
PDXDC2P Exon 70010714-70011906
  Effect: Unc
  T-PSI: 0.246
  ΔPSI: −0.004
PDZD11 Exon 69509372-69509443
  Effect: Inc
  T-PSI: 0.417
  ΔPSI: 0.257
PEAK1 Exon 77576225-77576372
  Effect: Exc
  T-PSI: 0.201
  ΔPSI: −0.170
PEAK1 Exon 77657505-77657567
  Effect: Unc
  T-PSI: 0.806
  ΔPSI: −0.001
PEX1 Exon 92138643-92138725
  Effect: Exc
  T-PSI: 0.444
  ΔPSI: −0.341
PEX5 Exon 7354837-7354947
  Effect: Exc
  T-PSI: 0.279
  ΔPSI: −0.163
PEX11A Exon 90229662-90229777
  Effect: Exc
  T-PSI: 0.316
  ΔPSI: −0.403
PFDN1 Exon 139680001-139680167
  T-PSI: 0.458
  ΔPSI: −0.326
PFDN5 Exon 53690214-53690335
  T-PSI: 0.175
  ΔPSI: 0.008
PFDN5 Exon 53690238-53690335
  T-PSI: 0.180
  ΔPSI: 0.007
RNASeq, human fibroblasts, out of 161,097 expressed triplets
  exon triplets showing differential middle exon inclusion or exclusion in response to treatment: 934
Δψ≤0.01
  unchanged-response set, exon triplets: 382
Δψ≤−0.1 and FDR<0.1
  exon exclusion events: 680
Δψ≥0.1 and FDR<0.1
  exon inclusion events: 254
